From the NIST ThermoML archive (doi:10.1016/j.tca.2005.11.021)
Numbers after ± are expanded uncertainties.

Test: molar heat capacity at constant pressure
Settings: 101.33 kPa, Crystal, Small (less than 1 g) adiabatic calorimetry

Structure (SMILES): N[C@@H](CCC(=O)[O-])C(=O)[O-].N[C@@H](CCC(=O)[O-])C(=O)[O-].O.O.O.O.O.O.O.O.O.[Ho+3].[Ho+3].[O-][Cl+3]([O-])([O-])O.[O-][Cl+3]([O-])([O-])O.[O-][Cl+3]([O-])([O-])[O-].[O-][Cl+3]([O-])([O-])[O-] [diholmium tetraperchlorate bis-l-glutamate nonahydrate]
- molar heat capacity at constant pressure (78.47 K): 416.36 ± 1.8 J/K/mol
- molar heat capacity at constant pressure (79.95 K): 427.06 ± 1.8 J/K/mol
- molar heat capacity at constant pressure (81.58 K): 448.95 ± 1.9 J/K/mol
- molar heat capacity at constant pressure (83.14 K): 457.5 ± 1.9 J/K/mol
- molar heat capacity at constant pressure (84.69 K): 466.74 ± 2 J/K/mol
- molar heat capacity at constant pressure (86.44 K): 480.65 ± 2 J/K/mol
- molar heat capacity at constant pressure (88.37 K): 490.26 ± 2.1 J/K/mol
- molar heat capacity at constant pressure (90.58 K): 502.33 ± 1.9 J/K/mol
- molar heat capacity at constant pressure (93.05 K): 521.47 ± 1.9 J/K/mol
- molar heat capacity at constant pressure (95.51 K): 537.31 ± 2 J/K/mol
- molar heat capacity at constant pressure (97.87 K): 558.72 ± 2.1 J/K/mol
- molar heat capacity at constant pressure (100.23 K): 562.37 ± 2.1 J/K/mol
- molar heat capacity at constant pressure (102.52 K): 570.54 ± 2.1 J/K/mol
- molar heat capacity at constant pressure (104.79 K): 579.03 ± 2.1 J/K/mol
- molar heat capacity at constant pressure (107.01 K): 584.28 ± 2.1 J/K/mol
- molar heat capacity at constant pressure (109.19 K): 599.35 ± 2.2 J/K/mol
- molar heat capacity at constant pressure (111.54 K): 612.05 ± 2.2 J/K/mol
- molar heat capacity at constant pressure (114.01 K): 619.47 ± 2.3 J/K/mol
- molar heat capacity at constant pressure (116.69 K): 633.45 ± 2.3 J/K/mol
- molar heat capacity at constant pressure (119.55 K): 640.47 ± 2.3 J/K/mol
- molar heat capacity at constant pressure (122.36 K): 656.69 ± 2.4 J/K/mol
- molar heat capacity at constant pressure (125.12 K): 670.24 ± 2.4 J/K/mol
- molar heat capacity at constant pressure (127.84 K): 678.7 ± 2.5 J/K/mol
- molar heat capacity at constant pressure (130.52 K): 691.49 ± 2.5 J/K/mol
- molar heat capacity at constant pressure (133.16 K): 703.15 ± 2.5 J/K/mol
- molar heat capacity at constant pressure (136.41 K): 717.73 ± 2.6 J/K/mol
- molar heat capacity at constant pressure (140.25 K): 728.41 ± 2.6 J/K/mol
- molar heat capacity at constant pressure (144.03 K): 745.38 ± 2.7 J/K/mol
- molar heat capacity at constant pressure (147.75 K): 759.44 ± 2.8 J/K/mol
- molar heat capacity at constant pressure (151.88 K): 781.07 ± 2.8 J/K/mol
- molar heat capacity at constant pressure (156.39 K): 802.41 ± 2.9 J/K/mol
- molar heat capacity at constant pressure (160.82 K): 822.03 ± 3 J/K/mol
- molar heat capacity at constant pressure (165.17 K): 841.38 ± 3 J/K/mol
- molar heat capacity at constant pressure (169.46 K): 860.32 ± 3.1 J/K/mol
- molar heat capacity at constant pressure (173.69 K): 880.13 ± 3.2 J/K/mol
- molar heat capacity at constant pressure (177.85 K): 903.04 ± 3.2 J/K/mol
- molar heat capacity at constant pressure (181.91 K): 962.58 ± 3.5 J/K/mol
- molar heat capacity at constant pressure (185.82 K): 1035.9 ± 3.7 J/K/mol
- molar heat capacity at constant pressure (189.62 K): 1053.8 ± 3.8 J/K/mol
- molar heat capacity at constant pressure (193.38 K): 1068 ± 3.8 J/K/mol
- molar heat capacity at constant pressure (197.09 K): 1084.5 ± 3.9 J/K/mol
- molar heat capacity at constant pressure (200.76 K): 1104.7 ± 3.9 J/K/mol
- molar heat capacity at constant pressure (204.4 K): 1116.6 ± 4 J/K/mol
- molar heat capacity at constant pressure (208 K): 1131.5 ± 4 J/K/mol
- molar heat capacity at constant pressure (211.57 K): 1149.2 ± 4.1 J/K/mol
- molar heat capacity at constant pressure (215.09 K): 1170.1 ± 4.2 J/K/mol
- molar heat capacity at constant pressure (218.58 K): 1180.3 ± 4.2 J/K/mol
- molar heat capacity at constant pressure (222.04 K): 1198 ± 4.3 J/K/mol
- molar heat capacity at constant pressure (225.47 K): 1211.6 ± 4.3 J/K/mol
- molar heat capacity at constant pressure (228.86 K): 1235.1 ± 4.4 J/K/mol
- molar heat capacity at constant pressure (232.19 K): 1241.6 ± 4.4 J/K/mol
- molar heat capacity at constant pressure (235.57 K): 1256.3 ± 4.5 J/K/mol
- molar heat capacity at constant pressure (239.35 K): 1265.1 ± 4.5 J/K/mol
- molar heat capacity at constant pressure (243.62 K): 1286.5 ± 4.6 J/K/mol
- molar heat capacity at constant pressure (247.83 K): 1297.2 ± 4.6 J/K/mol
- molar heat capacity at constant pressure (252.02 K): 1318.1 ± 4.7 J/K/mol
- molar heat capacity at constant pressure (256.17 K): 1324 ± 4.7 J/K/mol
- molar heat capacity at constant pressure (260.28 K): 1339.5 ± 4.8 J/K/mol
- molar heat capacity at constant pressure (264.35 K): 1355.8 ± 4.8 J/K/mol
- molar heat capacity at constant pressure (268.38 K): 1368.2 ± 4.9 J/K/mol
- molar heat capacity at constant pressure (272.36 K): 1390.1 ± 4.9 J/K/mol
- molar heat capacity at constant pressure (276.3 K): 1406.8 ± 5 J/K/mol
- molar heat capacity at constant pressure (280.21 K): 1418.2 ± 5 J/K/mol
- molar heat capacity at constant pressure (284.86 K): 1435.3 ± 5.1 J/K/mol
- molar heat capacity at constant pressure (290.1 K): 1457.8 ± 5.2 J/K/mol
- molar heat capacity at constant pressure (295.36 K): 1477.1 ± 5.2 J/K/mol
- molar heat capacity at constant pressure (300.5 K): 1499 ± 5.3 J/K/mol
- molar heat capacity at constant pressure (305.57 K): 1521.1 ± 5.4 J/K/mol
- molar heat capacity at constant pressure (310.61 K): 1529.2 ± 5.4 J/K/mol
- molar heat capacity at constant pressure (315.6 K): 1558.3 ± 5.5 J/K/mol
- molar heat capacity at constant pressure (320.54 K): 1577.6 ± 5.6 J/K/mol
- molar heat capacity at constant pressure (325.43 K): 1599.1 ± 5.7 J/K/mol
- molar heat capacity at constant pressure (330.3 K): 1607 ± 5.7 J/K/mol
- molar heat capacity at constant pressure (335.02 K): 1641.9 ± 5.8 J/K/mol
- molar heat capacity at constant pressure (339.66 K): 1649.4 ± 5.8 J/K/mol
- molar heat capacity at constant pressure (344.14 K): 1668.3 ± 5.9 J/K/mol
